Assay results: patent EP0374886A2, “Antiretroviral furan ketones” (MERRELL DOW PHARMACEUTICALS INC., priority 1988, dated 1990)
In brackets after ≈: the same amount, converted by molar mass.

Legend:
[1] = test system: Moloney murine leukemia virus (MoLV); assay: in vitro XC plaque assay (inhibition of virus plaque growth in mouse SC-1 cells / rat XC cells); type: cell-based; conditions: SC1, concentration giving a 50% inhibition of virus plaque growth, compounds added 2 hours prior to virus, read-out: IC₅₀
Procedure: The ability of the furan ketone derivatives of this invention to act as anti-retroviral agents can be demonstrated by their ability to inhibit the growth and replication of murine leukemia virus, an oncogenic retrovirus, as determined by an in vitro XC plaque assay. This assay was performed according to the method of Rowe et al. (Virology, 1970, 42, 1136-39) as previously described by L. Hsu, et al. (J. Virological Methods, 1980, 1, 167-77) and T. L. Bowlin and M. R. Proffitt (J. Interferon Res., 1983, 3(1), 19-31). Mouse SC-1 cells (fibroblast) (10⁵) were seeded into each well of 6-well cluster plates (Costar #3506) in 4 ml Minimum Essential Medium (MEM) with 10% Fetal Calf Serum (FCS). Following an 18 hour incubation period (37°C), Moloney murine leukemia virus (MoLV) was applied at a predetermined titer to give optimal (i.e. countable) numbers of virus plaques. Compounds were added 2 hours prior to addition of the virus. Three days later the culture medium was removed, the SC-1 cell monolayers were exposed to UV irradiation (1800 ergs), and rat XC cells (10⁶) were seeded into each well in 4 ml MEM. Following an additional 3 day incubation (37°C), these cells were fixed with ethyl alcohol (95%) and stained with 0.3% crystal violet. Plaques were then counted under low magnification. The antiviral activities of various compounds of this invention are tabulated in Table I in terms of the IC₅₀, i,e, the concentration giving a 50% inhibition of virus plaque growth.

HIV1GB8 strain of HIV-1 = assay: anti-HIV activity in T-cells (JM cells): syncytial cell count and p24 antigen after 4 days; type: cell-based; conditions: for SYNCYTIAL COUNT: untreated 29; for P24 ANTIGEN: untreated 801; for inhibition at 15 µg/mL / inhibition at 30 µg/mL: Human immunodeficiency virus 1, T-cell, 96 h, inhibition of syncytial count
Procedure: To further confirm the antiretroviral activity of these compounds, methyl 5-tetradecyloxy-2-furyl ketone and methyl 5-tetradecylthiomethyl-2-furyl ketone were evaluated for activity against HIV. Following overnight pretreatment of T-cells (JM cells) with the HIV1GB8 strain of HIV-1, the test compounds were added to the cell cultures at concentrations of 15 and 30 µg/ml. After 4 days the number of synctial cells in the cell culture and the amount of p24 antigen, also a measure of viral replication, were determined.

| SMILES | IC50 [1] | also measured |
| --- | --- | --- |
| CCCCCCCCCCCCCCOc1ccc(C(=O)CCCCCC)o1 [Hexyl 5-tetradecyloxy-2-furyl ketone] | 5 to 10 µg/mL (≈ 12.7 to 25.5 µM) |  |
| CCCCCCCCCCCCC(C)COc1ccc(C(C)=O)o1 (centres unmarked) [Methyl 5-(2-methyltetradecyloxy)-2-furyl ketone] | 1 to 5 µg/mL (≈ 2.97 to 14.9 µM) |  |
| CC(=O)c1ccc(OCCC(C)CCCC(C)CCCC(C)C)o1 (centres unmarked) [Methyl 5-(3,7,11-trimethyldodecyloxy)-2-furyl ketone] | < 1 µg/mL |  |
| CCCCCCCC/C=C\CCCCCCCCOc1ccc(C(C)=O)o1 [Methyl 5-(cis-9-octadecenyl)oxy-2-furyl ketone] | < 1 µg/mL |  |
| CCCCCCCCCCOc1ccc(C(C)=O)o1 [Methyl 5-decyloxy-2-furyl ketone] | 1 to 10 µg/mL (≈ 3.75 to 37.5 µM) |  |
| CCCCCCCCCCCCc1ccc(C(C)=O)o1 [Methyl 5-dodecyl-2-furyl ketone] | 5 to 10 µg/mL (≈ 18 to 35.9 µM) |  |
| CCCCCCCCCCCCOc1ccc(C(C)=O)o1 [Methyl 5-dodecyloxy-2-furyl ketone] | 1 to 10 µg/mL (≈ 3.4 to 34 µM) |  |
| CCCCCCCCCCCCCCCCOc1ccc(C(C)=O)o1 [Methyl 5-hexadecyloxy-2-furyl ketone] | 1 to 10 µg/mL (≈ 2.85 to 28.5 µM) |  |
| CCCCCCCCCCCCCCCCCCOc1ccc(C(C)=O)o1 [Methyl 5-octadecyloxy-2-furyl ketone] | > 10 µg/mL |  |
| CCCCCCCCCCCCCCCOc1ccc(C(C)=O)o1 [Methyl 5-pentadecyloxy-2-furyl ketone] | 5 to 10 µg/mL (≈ 14.9 to 29.7 µM) |  |
| CCCCCCCCCCCCCCc1ccc(C(C)=O)o1 [Methyl 5-tetradecyl-2-furyl ketone] | 1 to 10 µg/mL (≈ 3.26 to 32.6 µM) |  |
| CCCCCCCCCCCCCCOc1ccc(C(C)=O)o1 [Methyl 5-tetradecyloxy-2-furyl ketone] | 4 µg/mL (≈ 12.4 µM) | SYNCYTIAL COUNT (HIV1GB8 strain of HIV-1; 15 µg/ml): 19; P24 ANTIGEN (HIV1GB8 strain of HIV-1; 15 µg/ml): 450 pg X 10³/ml; SYNCYTIAL COUNT (HIV1GB8 strain of HIV-1; 30 µg/ml): 0; inhibition at 15 µg/mL (HIV1GB8 strain of HIV-1; 15 µg/ml): 34%; inhibition at 30 µg/mL (HIV1GB8 strain of HIV-1; 30 µg/ml): 100% |
| CCCCCCCCCCCCCCOCc1ccc(C(C)=O)o1 [Methyl 5-tetradecyloxymethyl-2-furyl ketone] | 1 to 10 µg/mL (≈ 2.97 to 29.7 µM) |  |
| CCCCCCCCCCCCCCSc1ccc(C(C)=O)o1 [Methyl 5-tetradecylthio-2-furyl ketone] | 1 to 10 µg/mL (≈ 2.95 to 29.5 µM) |  |
| CCCCCCCCCCCCCCSCc1ccc(C(C)=O)o1 [Methyl 5-tetradecylthiomethyl-2-furyl ketone] | 1 µg/mL (≈ 2.84 µM) | SYNCYTIAL COUNT (HIV1GB8 strain of HIV-1; 15 µg/ml): 3; P24 ANTIGEN (HIV1GB8 strain of HIV-1; 15 µg/ml): 152 pg X 10³/ml; SYNCYTIAL COUNT (HIV1GB8 strain of HIV-1; 30 µg/ml): 0; inhibition at 15 µg/mL (HIV1GB8 strain of HIV-1; 15 µg/ml): 90%; inhibition at 30 µg/mL (HIV1GB8 strain of HIV-1; 30 µg/ml): 100% |
| CCCCCCCCCCCCCCOc1ccc(C(=O)C(C)(C)C)o1 [t-Butyl 5-tetradecyloxy-2-furyl ketone] | 5 to 10 µg/mL (≈ 13.7 to 27.4 µM) |  |
